The source of these data is US8669208B2, “Herbicidal benzoxazinones” (BASF SE, priority 2010, dated 2014).

Holding throughout (format): in vivo
The subject of one experiment is Chenopodium album. As to the kind of experiment: greenhouse herbicidal test, pre-emergence treatment. The settings on record: pre-emergence method, application rate 50 g/ha, scale from 0 to 100, read-out: herbicidal activity against Chenopodium album. An excerpt:
(§1) The seeds of the test plants were sown separately for each species. For the pre-emergence treatment, the active ingredients, which had been suspended or emulsified in water, were applied directly after sowing by means of finely distributing nozzles. The containers were irrigated gently to promote germination and growth and subsequently covered with transparent plastic hoods until the plants had rooted. This cover caused uniform germination of the test plants, unless this has been impaired by the active ingredients. Depending on the species, the plants were kept at 10-25° C. or 20-35° C. The test period extended over 2 to 4 weeks. During this time, the plants were tended, and their response to the individual treatments was evaluated. Evaluation was carried out using a scale from 0 to 100. 100 means no emergence of the plants, or complete destruction of at least the aerial moieties, and 0 means no damage, or normal course of growth. A good herbicidal activity is given at values of at least 70 and a very good herbicidal activity is given at values of at least 85. The plants used in the greenhouse experiments belonged to the following species: [table]

Experiment [1] relates to Abutilon theophrasti. The description is as above. The settings on record: pre-emergence method, application rate 50 g/ha; scale from 0 to 100.
From the text: as §1

The next experiment concerns Amaranthus retroflexus. The experiment is described as above. The settings on record: pre-emergence method, scale from 0 to 100, read-out: herbicidal activity against Amaranthus retroflexus; for pest or weed control at 50 g/ha: application rate 50 g/ha; for pest or weed control at 25 g/ha: application rate 25 g/ha.
From the text: as §1

In experiment [2] the test system is Abutilon theophrasti. The experiment can be described thus: greenhouse herbicidal test, post-emergence treatment. The settings on record: post-emergence method, application rate 1000 g/ha; scale from 0 to 100. An excerpt: (§2) The seeds of the test plants were sown separately for each species. For the post-emergence treatment, the test plants were first grown to a height of 3 to 15 cm, depending on the plant habit, and only then treated with the active ingredients which had been suspended or emulsified in water. For this purpose, the test plants were either sown directly and grown in the same containers, or they were first grown separately as seedlings and transplanted into the test containers a few days prior to treatment. Depending on the species, the plants were kept at 10-25° C. or 20-35° C. The test period extended over 2 to 4 weeks. During this time, the plants were tended, and their response to the individual treatments was evaluated. Evaluation was carried out using a scale from 0 to 100. 100 means no emergence of the plants, or complete destruction of at least the aerial moieties, and 0 means no damage, or normal course of growth. A good herbicidal activity is given at values of at least 70 and a very good herbicidal activity is given at values of at least 85. The plants used in the greenhouse experiments belonged to the following species: [table]

The next experiment concerns Viola arvensis. The experiment can be described thus: greenhouse herbicidal test, pre-emergence treatment. The settings on record: pre-emergence method, application rate 25 g/ha; scale from 0 to 100.
From the text: as §1

Another experiment concerns Amaranthus palmeri. As to the kind of experiment: greenhouse herbicidal test, post-emergence treatment. The settings on record: post-emergence method, application rate 12.5 g/ha; scale from 0 to 100.
From the text: as §2

The subject of another experiment is Kochia scoparia. The experiment is described as above. The settings on record: post-emergence method, application rate 12.5 g/ha; scale from 0 to 100.
From the text: as §2

A further experiment relates to Malva neglecta. The experiment is described as above. The settings on record: post-emergence method, application rate 12.5 g/ha; scale from 0 to 100.
From the text: as §2

Structures are written as SMILES.

Consider `C#CCN1C(=O)C(F)(F)Oc2cc(F)c(N3C(=O)[C@H]4C[C@H](F)CN4C3=O)cc21` [Example 2, (6S,7aR)-6-Fluoro-2-(2,2,7-trifluoro-3-oxo-4-prop-2-ynyl-3,4-dihydro-2H-benzo[1,4]-oxazin-6-yl)-tetrahydro-pyrrolo[1,2-c]imidazole-1,3-dione], for which the pest or weed control at 50 g/ha with Chenopodium album and in the experiment with Amaranthus retroflexus was not below 85% each time. In the experiment on Abutilon theophrasti [1], the “herbicidal activity against Abutilon theophrasti” value is “very good herbicidal activity (a very good herbicidal activity is given at values of at least 85)”.
For the compound `C#CCN1C(=O)C(F)(F)Oc2cc(F)c(-n3nc4n(c3=O)CCCC4)cc21` [Example 9], the pest or weed control at 50 g/ha with Chenopodium album and with Amaranthus retroflexus was not below 85% throughout. In the experiment on Abutilon theophrasti [1], the “herbicidal activity against Abutilon theophrasti” value is “very good herbicidal activity (a very good herbicidal activity is given at values of at least 85)”.
Turning to `C#CCN1C(=O)C(F)(F)Oc2cc(F)c(N3C(=O)OC(=C(C)C)C3=O)cc21` [Example 10], the pest or weed control at 50 g/ha with Chenopodium album and with Amaranthus retroflexus was not below 85% in each case. Besides, the “herbicidal activity against Abutilon theophrasti” value in the experiment with Abutilon theophrasti [1] was “very good herbicidal activity (a very good herbicidal activity is given at values of at least 85)”.
`C#CCN1C(=O)C(F)(F)Oc2cc(F)c(-n3nc(C)n(C(F)F)c3=O)cc21` [Example 11]: the pest or weed control at 50 g/ha in the experiment with Chenopodium album and in the experiment on Amaranthus retroflexus was not below 85% throughout. Further, in the experiment with Abutilon theophrasti [1], the “herbicidal activity against Abutilon theophrasti” value is “very good herbicidal activity (a very good herbicidal activity is given at values of at least 85)”.
On to `C#CCN1C(=O)C(F)(F)Oc2cc(F)c(-n3nc(C)nc3OC(F)F)cc21` [Example 12], for which the pest or weed control at 50 g/ha with Chenopodium album and in the experiment on Amaranthus retroflexus was not below 85% in each case. Also, the “herbicidal activity against Abutilon theophrasti” value with Abutilon theophrasti [1] is given as “very good herbicidal activity (a very good herbicidal activity is given at values of at least 85)”.
As to `C#CCN1C(=O)C(F)(F)Oc2cc(F)c(/N=c3\snc4n3CC(C)(C)C4)cc21` [Example 13], the pest or weed control at 50 g/ha in the experiment on Chenopodium album and with Amaranthus retroflexus was not below 85% in each case.
With `C#CCN1C(=O)C(F)(F)Oc2cc(F)c(N3C(=O)CC(C)CC3=O)cc21` [Example 14], the pest or weed control at 50 g/ha in the experiment with Chenopodium album and in the experiment with Amaranthus retroflexus was not below 85% throughout. Further, the “herbicidal activity against Abutilon theophrasti” value in the experiment with Abutilon theophrasti [1] is on record as “very good herbicidal activity (a very good herbicidal activity is given at values of at least 85)”.
As for `C#CCN1C(=O)C(F)(F)Oc2cc(F)c(N3C(=O)c4ccc(F)cc4C3=O)cc21` [Example 15], the pest or weed control at 50 g/ha with Chenopodium album and in the experiment on Amaranthus retroflexus was not below 85% in each case.
Consider `C#CCN1C(=O)C(F)(F)Oc2cc(F)c(/N=c3\scc(C(F)(F)F)n3C)cc21` [Example 16], for which the pest or weed control at 50 g/ha in the experiment on Chenopodium album and in the experiment on Amaranthus retroflexus was not below 85% each time.
Regarding `C#CCN1C(=O)C(F)(F)Oc2cc(F)c(N3C(=O)CC(=C(C)C)C3=O)cc21` [Example 17], the pest or weed control at 50 g/ha in the experiment with Chenopodium album and in the experiment on Amaranthus retroflexus was not below 85% in each case.
Turning to `Cn1nc(-c2cc3c(cc2F)OC(F)(F)C(=O)N3)cc1C(F)(F)F` [Example 19], the “herbicidal activity against Abutilon theophrasti” value with Abutilon theophrasti [2] is “very good herbicidal activity (a very good herbicidal activity is given at values of at least 85)”.
For `C#CCN1C(=O)C(F)(F)Oc2cc(F)c(-n3ncc(C(F)(F)F)c(C)c3=O)cc21` [Ia48, 2,2,7-Trifluoro-6-(5-methyl-6-oxo-4-trifluoromethyl-6H-pyridazin-1-yl)-4-prop-2-ynyl-4H-benzo[1,4]oxazin-3-one], the “herbicidal activity against Viola arvensis” value in the experiment with Viola arvensis is listed as “very good herbicidal activity (a very good herbicidal activity is given at values of at least 85)”. Moreover, the pest or weed control at 25 g/ha in the experiment on Amaranthus retroflexus was not below 85%. In addition, in the experiment on Amaranthus palmeri, the “herbicidal activity against Amaranthus palmeri” value was “very good herbicidal activity (a very good herbicidal activity is given at values of at least 85)”. Besides, the “herbicidal activity against Kochia scoparia” value with Kochia scoparia was “very good herbicidal activity (a very good herbicidal activity is given at values of at least 85)”. Further, in the experiment on Malva neglecta, the “herbicidal activity against Malva neglecta” value is recorded as “very good herbicidal activity (a very good herbicidal activity is given at values of at least 85)”.
As for `C#CCN1C(=O)C(F)(F)Oc2cc(F)c(/N=c3\sc(=O)n4n3CCCC4)cc21` [If48], the pest or weed control at 50 g/ha in the experiment on Chenopodium album and in the experiment on Amaranthus retroflexus was not below 85% in each case. Besides, the “herbicidal activity against Abutilon theophrasti” value in the experiment with Abutilon theophrasti [1] is listed as “very good herbicidal activity (a very good herbicidal activity is given at values of at least 85)”.
Take `C#CCN1C(=O)C(F)(F)Oc2cc(F)c(-n3nc(C(C)(C)C)oc3=O)cc21` [Ig48, 6-(5-tert-Butyl-2-oxo-[1,3,4]oxadiazol-3-yl)-2,2,7-trifluoro-4-prop-2-ynyl-4H-benzo[1,4]oxazin-3-one]: the “herbicidal activity against Viola arvensis” value in the experiment with Viola arvensis is listed as “very good herbicidal activity (a very good herbicidal activity is given at values of at least 85)”. The pest or weed control at 25 g/ha in the experiment with Amaranthus retroflexus is not below 85%. Further, in the experiment with Amaranthus palmeri, the “herbicidal activity against Amaranthus palmeri” value is given as “very good herbicidal activity (a very good herbicidal activity is given at values of at least 85)”. Also, the “herbicidal activity against Kochia scoparia” value in the experiment with Kochia scoparia is recorded as “good herbicidal activity (A good herbicidal activity is given at values of at least 70)”. For the same compound, the “herbicidal activity against Malva neglecta” value with Malva neglecta is given as “very good herbicidal activity (a very good herbicidal activity is given at values of at least 85)”.
On to `C#CCN1C(=O)C(F)(F)Oc2cc(F)c(N3C(=O)C(=O)N(CCC)C3=S)cc21` [Ii48, 1-Propyl-2-thioxo-3-(2,2,7-trifluoro-3-oxo-4-prop-2-ynyl-3,4-dihydro-2H-benzo[1,4]oxazin-6-yl)-imidazolidine-4,5-dione], for which the “herbicidal activity against Kochia scoparia” value in the experiment with Kochia scoparia is “very good herbicidal activity (a very good herbicidal activity is given at values of at least 85)”. The “herbicidal activity against Malva neglecta” value in the experiment with Malva neglecta is reported as “very good herbicidal activity (a very good herbicidal activity is given at values of at least 85)”.
As to `C#CCN1C(=O)C(F)(F)Oc2cc(F)c(-n3c(=O)c4ccccc4n(C)c3=O)cc21` [Ik48, 1-Methyl-3-(2,2,7-trifluoro-3-oxo-4-prop-2-ynyl-3,4-dihydro-2H-benzo[1,4]oxazin-6-yl)-1H-quinazoline-2,4-dione], the “herbicidal activity against Viola arvensis” value in the experiment on Viola arvensis was “good herbicidal activity (A good herbicidal activity is given at values of at least 70)”. In addition, in the experiment on Amaranthus retroflexus, the pest or weed control at 25 g/ha was not below 85%. The “herbicidal activity against Amaranthus palmeri” value in the experiment on Amaranthus palmeri is listed as “very good herbicidal activity (a very good herbicidal activity is given at values of at least 85)”. For the same compound, the “herbicidal activity against Kochia scoparia” value in the experiment on Kochia scoparia is “very good herbicidal activity (a very good herbicidal activity is given at values of at least 85)”. The “herbicidal activity against Malva neglecta” value in the experiment with Malva neglecta is on record as “very good herbicidal activity (a very good herbicidal activity is given at values of at least 85)”.
